We go through 3 compounds from patent US20220002293A1, “8-CYCLOPENTYL-7-OXO-2-(4-PIPERAZIN-1-YL-PHENYLAMINO)-7, 8-DIHYDRO-PYRIDO [2,3-D]PYRIMIDINE-6-CARBONITRILE AND USES THEREOF IN TREATING PROLIFERATIVE DISORDERS” (ONCONOVA THERAPEUTICS, INC., priority 2018, published 2022).

Where two headings read alike, the source gives them in different places.

The subject of data set [1] is HeLa (human cervical cancer). Put plainly: Cytotoxicity assay (CellTiter-Glo), HeLa. It is filed as cell-based. The text has this:
(§1) Determination of the Half Maximal Inhibition Concentration IC50: • 1.
On the technique in general: In ATP-based viability assays light output follows the ATP content of the culture.

The test system of data set [2] is K-562 (human chronic myelogenous leukemia). Put plainly: Cytotoxicity assay (CellTiter-Glo), K-562. The conditions noted are these: for IC50: CellTiter-Glo, read-out: Absolute IC50. In kind it is cell-based.
From the text: as §1

Data set [3] deals with DU 145 (human prostate cancer). Put plainly: Cytotoxicity assay (CellTiter-Glo), DU 145. In kind it is cell-based. The conditions noted are these: for IC50: CellTiter-Glo, read-out: Absolute IC50.
From the text: as §1

For data set [4], the system named is GRANTA-519 (human B Cell lymphoma). Put plainly: Cytotoxicity assay (CellTiter-Glo), GRANTA-519. The note with it: for IC50: read-out: Absolute IC50.
From the text: (§3) The homogeneous assay procedure involves adding a single reagent (CellTiter-Glo® Reagent) directly to cells cultured in serum-supplemented medium. The homogeneous “add-mix-measure” format results in cell lysis and generation of a luminescent signal proportional to the amount of ATP present. The amount of ATP is directly proportional to the number of cells present in culture. The assay generates a luminescent signal, produced by the luciferase reaction.
(§4) Determination of the Half Maximal Inhibition Concentration IC50: • 1. Harvest cells during the logarithmic growth period and count cell number using Count-star. • 2. […] Add 90 μL cell suspensions to two 96-well plates (plates A and B) with the final cell density of 4×10^3 cells/well. (cell concentration is adjusted according to the data base or density optimization assay.)
(§5) Next day: For the Plates of T0 Reading: • 1) Add 10 μL culture medium to each well of plate A for T0 reading. • 2) Equilibrate the plate and its content at RT for approximately 30 min. • 3) Add 50 μL CellTiter-Glo (CTG) reagent to each well. • 4) Mix content for 5 min on an orbital shaker to induce cell lysis. • 5) Allow the plate to incubate at RT for 20 min to stabilize luminescent signal. Note: Uneven luminescent signal within standard plates can be caused by temperature gradients, uneven seeding of cells or edge effects in multiwell plates. • 6) Record luminescence (T0) using EnVision Multi Label Reader.
(§6) Note: Uneven luminescent signal within standard plates can be caused by temperature gradients, uneven seeding of cells or edge effects in multiwall plates. • 9) Record luminescence.
(§7) In order to calculate absolute IC50 (EC50), a dose-response curve was fitted using nonlinear regression model with a sigmoidal dose response. The formula for calculating surviving rate is shown below and the absolute IC50 (EC50) was calculated according to the dose-response curve generated by GraphPad Prism 5.0.
(§8) The surviving rate (%)=(LumTest article−LumMedium control)/(LumNon-treated−LumMedium control)×100%.
Data set [5] concerns the target RET (Homo sapiens, UniProt P07949). Put plainly: Kinase inhibition, RET. In kind it is biochemical. The conditions noted are these: 10 μM ATP; read-out: Compound IC50 (M), RET. As to the method: (§2) The compounds in Table 1 were tested for the ability to inhibit the kinase activity of the listed protein kinases.
The target in data set [6] is CDK6/cyclin D3 (Homo sapiens, UniProt Q00534). Put plainly: Kinase inhibition, CDK6/cyclin D3. In kind it is biochemical. The conditions noted are these: 10 μM ATP; read-out: Compound IC50 (M), CDK6/cyclin D3. As to the method: as §2
Chain of CDK6/cyclin D3 (Q00534 whole entry): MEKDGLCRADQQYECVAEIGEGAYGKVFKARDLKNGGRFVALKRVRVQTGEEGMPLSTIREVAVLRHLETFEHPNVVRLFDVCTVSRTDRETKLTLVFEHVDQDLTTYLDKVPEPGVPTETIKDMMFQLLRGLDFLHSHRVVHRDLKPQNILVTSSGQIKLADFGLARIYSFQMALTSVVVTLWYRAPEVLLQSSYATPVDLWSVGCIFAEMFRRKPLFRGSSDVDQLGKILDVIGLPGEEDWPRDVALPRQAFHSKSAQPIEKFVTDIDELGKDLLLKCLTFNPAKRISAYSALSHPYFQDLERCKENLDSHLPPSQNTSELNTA
Chain of CDK6/cyclin D3 (P30281 whole entry partner): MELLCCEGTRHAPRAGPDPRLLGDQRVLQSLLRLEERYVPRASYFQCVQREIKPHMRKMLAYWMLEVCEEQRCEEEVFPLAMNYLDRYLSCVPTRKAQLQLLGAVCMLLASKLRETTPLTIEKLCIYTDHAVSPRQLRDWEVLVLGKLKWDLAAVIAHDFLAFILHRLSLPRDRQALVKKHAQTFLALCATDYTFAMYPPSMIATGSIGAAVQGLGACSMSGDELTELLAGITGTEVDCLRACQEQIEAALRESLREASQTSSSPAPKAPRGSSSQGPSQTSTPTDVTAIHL
The target in data set [7] is CDK9/cyclin K (Homo sapiens, UniProt P50750). Put plainly: Kinase inhibition, CDK9/cyclin K. It is filed as biochemical. The note with it: 10 μM ATP; read-out: Compound IC50 (M), CDK9/cyclin K. As to the method:
as §2

In data set [8] the target is ABL1 (Homo sapiens, UniProt P00519). Put plainly: Kinase inhibition, ABL1. It is filed as biochemical. The conditions noted are these: 10 μM ATP; read-out: Compound IC50 (M), ABL1. As to the method: as §2
Chain of ABL1 (P00519 whole entry): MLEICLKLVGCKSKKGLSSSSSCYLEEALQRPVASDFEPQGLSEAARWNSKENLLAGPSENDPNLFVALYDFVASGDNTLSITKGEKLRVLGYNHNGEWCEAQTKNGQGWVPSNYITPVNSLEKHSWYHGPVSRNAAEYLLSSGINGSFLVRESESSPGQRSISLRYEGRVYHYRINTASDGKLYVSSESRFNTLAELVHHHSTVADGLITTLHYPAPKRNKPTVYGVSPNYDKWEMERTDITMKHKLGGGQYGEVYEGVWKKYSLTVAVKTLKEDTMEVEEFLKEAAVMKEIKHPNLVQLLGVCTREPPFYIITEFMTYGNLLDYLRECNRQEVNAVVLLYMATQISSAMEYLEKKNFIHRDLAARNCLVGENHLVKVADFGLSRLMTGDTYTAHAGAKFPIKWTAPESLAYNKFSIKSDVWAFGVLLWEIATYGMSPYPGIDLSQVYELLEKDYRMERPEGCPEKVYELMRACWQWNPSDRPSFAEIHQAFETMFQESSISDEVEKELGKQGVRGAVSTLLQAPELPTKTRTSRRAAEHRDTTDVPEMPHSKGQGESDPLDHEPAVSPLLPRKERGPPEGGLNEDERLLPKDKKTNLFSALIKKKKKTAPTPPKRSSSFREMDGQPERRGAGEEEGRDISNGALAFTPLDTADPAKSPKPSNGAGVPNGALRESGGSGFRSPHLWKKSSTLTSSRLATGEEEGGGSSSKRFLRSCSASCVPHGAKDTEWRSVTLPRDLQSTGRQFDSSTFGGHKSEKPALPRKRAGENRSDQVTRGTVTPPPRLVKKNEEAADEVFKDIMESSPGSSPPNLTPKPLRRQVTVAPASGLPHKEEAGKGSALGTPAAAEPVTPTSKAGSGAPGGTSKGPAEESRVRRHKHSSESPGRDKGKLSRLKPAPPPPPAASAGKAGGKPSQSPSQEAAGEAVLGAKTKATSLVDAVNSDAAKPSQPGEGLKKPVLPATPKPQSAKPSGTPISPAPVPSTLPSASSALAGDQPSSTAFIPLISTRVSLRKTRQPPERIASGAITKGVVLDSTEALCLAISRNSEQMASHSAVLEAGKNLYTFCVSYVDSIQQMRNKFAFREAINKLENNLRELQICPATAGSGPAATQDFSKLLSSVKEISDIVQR
For data set [9], the target named is T1, ARK5/NUAK1 (Homo sapiens, UniProt O60285).
T1 sequence (O60285 1-661): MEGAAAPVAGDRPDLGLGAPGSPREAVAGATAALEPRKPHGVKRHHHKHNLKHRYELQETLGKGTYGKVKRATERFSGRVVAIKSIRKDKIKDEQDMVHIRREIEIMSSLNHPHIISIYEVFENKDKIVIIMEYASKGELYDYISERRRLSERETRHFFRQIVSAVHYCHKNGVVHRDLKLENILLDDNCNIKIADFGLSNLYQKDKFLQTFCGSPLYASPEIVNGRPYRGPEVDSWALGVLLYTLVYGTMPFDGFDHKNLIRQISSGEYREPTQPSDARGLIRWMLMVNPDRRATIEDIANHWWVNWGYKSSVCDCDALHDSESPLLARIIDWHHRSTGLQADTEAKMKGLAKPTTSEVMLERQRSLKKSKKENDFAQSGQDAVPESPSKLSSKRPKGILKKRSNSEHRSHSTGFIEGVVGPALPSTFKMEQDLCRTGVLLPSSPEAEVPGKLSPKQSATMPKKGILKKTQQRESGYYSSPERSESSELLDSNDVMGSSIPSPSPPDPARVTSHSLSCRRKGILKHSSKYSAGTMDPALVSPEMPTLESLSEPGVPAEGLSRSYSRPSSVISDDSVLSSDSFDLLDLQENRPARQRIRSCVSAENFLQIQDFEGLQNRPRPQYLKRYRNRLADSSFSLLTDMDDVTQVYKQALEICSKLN
Put plainly: Kinase inhibition, ARK5/NUAK1. In kind it is biochemical. The conditions noted are these: 10 μM ATP; values <1 nM estimated from best curve fitting; read-out: Compound IC50 (M), ARK5/NUAK1. As to the method:
as §2

Data set [10] has as its target CDK4/cyclin D1 (Homo sapiens, UniProt P11802). Put plainly: Kinase inhibition, CDK4/cyclin D1. The conditions noted are these: 10 μM ATP; read-out: Compound IC50 (M), CDK4/cyclin D1. In kind it is biochemical. As to the method:
as §2

Data set [11] has as its target FGFR1 (Homo sapiens, UniProt P11362). Put plainly: Kinase inhibition, FGFR1. It is filed as biochemical. The conditions noted are these: 10 μM ATP; read-out: Compound IC50 (M), FGFR1. As to the method:
as §2

Data set [12] concerns the target FLT4/VEGFR3 (Homo sapiens, UniProt P35916). Put plainly: Kinase inhibition, FLT4/VEGFR3. In kind it is biochemical. The conditions noted are these: 10 μM ATP; read-out: Compound IC50 (M), FLT4/VEGFR3. As to the method:
The compounds in Table 1 were tested for the ability to inhibit the kinase activity of the listed protein kinases. […]

The target of data set [13] is CDK4/cyclin D3 (Homo sapiens, UniProt P11802). Put plainly: Kinase inhibition, CDK4/cyclin D3. It is filed as biochemical. The conditions noted are these: 10 μM ATP; read-out: Compound IC50 (M), CDK4/cyclin D3. As to the method:
as §2

Data set [14] has as its target CDK6/cyclin D1 (Homo sapiens, UniProt Q00534). Put plainly: Kinase inhibition, CDK6/cyclin D1. It is filed as biochemical. The note with it: 10 μM ATP; values <1 nM estimated from best curve fitting; read-out: Compound IC50 (M), CDK6/cyclin D1. As to the method:
as §2

Data set [15] deals with FYN (Homo sapiens, UniProt P06241). Put plainly: Kinase inhibition, FYN. It is filed as biochemical. The conditions noted are these: 10 μM ATP; read-out: Compound IC50 (M), FYN. As to the method:
as §2

The target of data set [16] is PDGFRb (Homo sapiens, UniProt P09619). Put plainly: Kinase inhibition, PDGFRb. In kind it is biochemical. The conditions noted are these: 10 μM ATP; read-out: Compound IC50 (M), PDGFRb. As to the method: as §2
The target of data set [17] is T2, FLT3 (Homo sapiens, UniProt P36888).
T2 sequence (P36888 27-993): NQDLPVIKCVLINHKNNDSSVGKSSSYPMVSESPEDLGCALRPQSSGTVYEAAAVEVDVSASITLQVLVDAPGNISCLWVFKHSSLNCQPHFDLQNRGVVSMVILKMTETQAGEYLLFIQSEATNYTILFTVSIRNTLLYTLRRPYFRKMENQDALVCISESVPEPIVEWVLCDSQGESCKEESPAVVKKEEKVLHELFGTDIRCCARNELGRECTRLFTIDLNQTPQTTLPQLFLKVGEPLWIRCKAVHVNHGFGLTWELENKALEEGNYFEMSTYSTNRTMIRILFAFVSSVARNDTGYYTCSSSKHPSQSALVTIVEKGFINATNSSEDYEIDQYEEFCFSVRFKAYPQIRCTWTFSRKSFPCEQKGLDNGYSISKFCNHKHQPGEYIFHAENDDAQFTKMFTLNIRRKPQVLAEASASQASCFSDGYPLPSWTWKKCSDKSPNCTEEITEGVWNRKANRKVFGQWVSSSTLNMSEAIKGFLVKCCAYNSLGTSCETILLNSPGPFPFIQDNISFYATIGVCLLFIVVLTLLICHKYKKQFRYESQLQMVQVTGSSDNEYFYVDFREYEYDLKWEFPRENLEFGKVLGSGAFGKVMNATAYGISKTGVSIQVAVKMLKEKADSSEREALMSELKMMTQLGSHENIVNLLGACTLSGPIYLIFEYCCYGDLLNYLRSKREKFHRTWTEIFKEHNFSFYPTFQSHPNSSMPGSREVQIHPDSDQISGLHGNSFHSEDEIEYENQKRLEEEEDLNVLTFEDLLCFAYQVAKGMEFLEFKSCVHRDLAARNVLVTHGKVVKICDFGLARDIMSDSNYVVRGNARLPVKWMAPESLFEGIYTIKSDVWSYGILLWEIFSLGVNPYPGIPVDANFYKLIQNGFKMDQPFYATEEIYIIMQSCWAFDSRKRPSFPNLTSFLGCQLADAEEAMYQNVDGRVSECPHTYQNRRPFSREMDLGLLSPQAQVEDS
Put plainly: Kinase inhibition, FLT3. It is filed as biochemical. The conditions noted are these: 10 μM ATP; values <1 nM estimated from best curve fitting; read-out: Compound IC50 (M), FLT3. As to the method: as §2

The target of data set [18] is T3, PKG2/PRKG2 (Homo sapiens, UniProt Q13237).
T3 sequence (Q13237 1-762): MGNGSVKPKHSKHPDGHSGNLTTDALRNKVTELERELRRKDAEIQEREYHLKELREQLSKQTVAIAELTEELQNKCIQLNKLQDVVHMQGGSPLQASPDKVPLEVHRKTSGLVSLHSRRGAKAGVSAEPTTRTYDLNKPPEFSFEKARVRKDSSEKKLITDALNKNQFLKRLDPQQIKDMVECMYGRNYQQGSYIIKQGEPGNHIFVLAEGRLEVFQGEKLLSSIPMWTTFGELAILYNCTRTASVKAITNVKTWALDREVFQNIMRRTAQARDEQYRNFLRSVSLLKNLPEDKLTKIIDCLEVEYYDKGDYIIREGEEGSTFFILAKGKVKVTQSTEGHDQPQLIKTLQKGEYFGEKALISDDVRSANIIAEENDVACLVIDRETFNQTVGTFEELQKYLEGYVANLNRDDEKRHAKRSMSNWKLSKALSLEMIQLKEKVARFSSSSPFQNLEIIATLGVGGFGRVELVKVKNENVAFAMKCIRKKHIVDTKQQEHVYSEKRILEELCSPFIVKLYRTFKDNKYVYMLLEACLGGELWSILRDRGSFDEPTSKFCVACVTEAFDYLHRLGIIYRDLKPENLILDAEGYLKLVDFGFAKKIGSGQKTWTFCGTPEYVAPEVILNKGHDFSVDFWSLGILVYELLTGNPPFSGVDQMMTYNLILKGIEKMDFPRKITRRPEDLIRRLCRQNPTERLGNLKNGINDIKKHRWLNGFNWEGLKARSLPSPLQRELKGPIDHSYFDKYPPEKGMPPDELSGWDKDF
Put plainly: Kinase inhibition, PKG2/PRKG2. The note with it: 10 μM ATP; read-out: Compound IC50 (M), PKG2/PRKG2. In kind it is biochemical. As to the method: as §2

For data set [19], the system named is GRANTA-519 (human B Cell lymphoma).
From the text: as §3, §4, §5, §6, §7, §8

Chain of FLT4/VEGFR3 (P35916 25-1363): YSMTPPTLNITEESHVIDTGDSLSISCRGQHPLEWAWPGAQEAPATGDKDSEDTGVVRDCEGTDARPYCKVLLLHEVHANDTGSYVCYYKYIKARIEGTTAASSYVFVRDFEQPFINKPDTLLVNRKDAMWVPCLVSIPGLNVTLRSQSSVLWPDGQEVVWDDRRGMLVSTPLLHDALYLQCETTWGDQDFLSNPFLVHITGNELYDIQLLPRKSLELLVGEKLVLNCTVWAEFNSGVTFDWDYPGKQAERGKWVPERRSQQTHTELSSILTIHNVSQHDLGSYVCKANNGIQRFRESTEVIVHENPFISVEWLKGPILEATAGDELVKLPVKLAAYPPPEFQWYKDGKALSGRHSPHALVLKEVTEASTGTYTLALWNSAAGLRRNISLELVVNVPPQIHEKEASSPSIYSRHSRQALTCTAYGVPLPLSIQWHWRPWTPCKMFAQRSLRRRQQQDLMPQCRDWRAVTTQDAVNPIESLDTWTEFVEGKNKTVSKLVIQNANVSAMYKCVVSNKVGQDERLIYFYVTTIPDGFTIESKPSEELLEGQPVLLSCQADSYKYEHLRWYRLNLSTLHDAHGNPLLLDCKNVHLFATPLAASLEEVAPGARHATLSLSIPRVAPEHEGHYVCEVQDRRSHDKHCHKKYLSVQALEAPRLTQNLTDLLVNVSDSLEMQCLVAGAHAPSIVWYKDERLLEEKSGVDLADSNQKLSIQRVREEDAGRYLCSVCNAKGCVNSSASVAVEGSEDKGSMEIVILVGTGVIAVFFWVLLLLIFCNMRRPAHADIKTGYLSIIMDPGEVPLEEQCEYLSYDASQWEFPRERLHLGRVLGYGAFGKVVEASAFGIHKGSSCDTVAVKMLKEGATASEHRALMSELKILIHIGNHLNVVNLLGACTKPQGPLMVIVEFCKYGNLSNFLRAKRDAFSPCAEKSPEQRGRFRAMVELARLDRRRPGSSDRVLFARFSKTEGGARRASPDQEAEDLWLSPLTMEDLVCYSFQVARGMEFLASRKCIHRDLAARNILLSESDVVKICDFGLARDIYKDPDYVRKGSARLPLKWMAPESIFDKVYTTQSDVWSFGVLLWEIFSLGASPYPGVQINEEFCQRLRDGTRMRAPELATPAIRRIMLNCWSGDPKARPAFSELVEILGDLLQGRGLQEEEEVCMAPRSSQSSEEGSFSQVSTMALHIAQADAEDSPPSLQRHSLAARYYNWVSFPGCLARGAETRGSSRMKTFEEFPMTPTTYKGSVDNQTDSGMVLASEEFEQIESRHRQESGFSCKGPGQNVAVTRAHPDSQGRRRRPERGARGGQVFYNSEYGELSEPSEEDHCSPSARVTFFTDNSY
Chain of CDK6/cyclin D1 (Q00534 whole entry): as the sequence (Q00534 whole entry) above
Chain of CDK6/cyclin D1 (P24385 whole entry partner): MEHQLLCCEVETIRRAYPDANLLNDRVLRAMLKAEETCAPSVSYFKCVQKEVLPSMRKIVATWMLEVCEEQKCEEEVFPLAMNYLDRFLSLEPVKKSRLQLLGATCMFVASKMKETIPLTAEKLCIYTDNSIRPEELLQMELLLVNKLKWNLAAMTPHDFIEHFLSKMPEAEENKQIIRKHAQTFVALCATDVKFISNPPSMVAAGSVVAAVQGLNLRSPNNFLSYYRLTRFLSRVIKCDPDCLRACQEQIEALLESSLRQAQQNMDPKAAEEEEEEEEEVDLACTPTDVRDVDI
Chain of CDK9/cyclin K (P50750 whole entry): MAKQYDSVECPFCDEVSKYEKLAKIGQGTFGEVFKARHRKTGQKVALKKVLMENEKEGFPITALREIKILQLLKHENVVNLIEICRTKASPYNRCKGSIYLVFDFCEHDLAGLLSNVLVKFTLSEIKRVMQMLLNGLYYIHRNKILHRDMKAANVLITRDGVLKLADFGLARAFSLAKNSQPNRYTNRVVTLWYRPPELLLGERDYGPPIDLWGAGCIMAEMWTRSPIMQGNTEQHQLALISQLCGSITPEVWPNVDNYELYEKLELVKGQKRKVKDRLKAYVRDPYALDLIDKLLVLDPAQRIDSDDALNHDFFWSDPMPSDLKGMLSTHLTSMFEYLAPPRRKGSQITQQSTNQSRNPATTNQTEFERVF
Chain of CDK9/cyclin K (O75909 whole entry partner): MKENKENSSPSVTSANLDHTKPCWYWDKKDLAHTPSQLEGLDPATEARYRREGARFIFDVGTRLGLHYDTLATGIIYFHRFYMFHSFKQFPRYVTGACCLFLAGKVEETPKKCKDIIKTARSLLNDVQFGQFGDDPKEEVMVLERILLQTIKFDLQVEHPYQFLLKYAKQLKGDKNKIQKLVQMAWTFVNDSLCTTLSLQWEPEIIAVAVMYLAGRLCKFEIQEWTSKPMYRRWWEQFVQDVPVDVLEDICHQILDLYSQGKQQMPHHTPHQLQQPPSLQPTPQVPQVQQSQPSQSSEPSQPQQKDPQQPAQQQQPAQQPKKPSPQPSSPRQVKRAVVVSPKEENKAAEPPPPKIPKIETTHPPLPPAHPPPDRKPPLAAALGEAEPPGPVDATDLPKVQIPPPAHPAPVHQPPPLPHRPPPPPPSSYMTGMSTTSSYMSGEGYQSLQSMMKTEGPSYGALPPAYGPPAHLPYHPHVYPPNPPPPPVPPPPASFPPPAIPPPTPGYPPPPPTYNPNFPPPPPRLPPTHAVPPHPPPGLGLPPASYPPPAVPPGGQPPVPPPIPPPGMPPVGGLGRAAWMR
Chain of FYN (P06241 whole entry): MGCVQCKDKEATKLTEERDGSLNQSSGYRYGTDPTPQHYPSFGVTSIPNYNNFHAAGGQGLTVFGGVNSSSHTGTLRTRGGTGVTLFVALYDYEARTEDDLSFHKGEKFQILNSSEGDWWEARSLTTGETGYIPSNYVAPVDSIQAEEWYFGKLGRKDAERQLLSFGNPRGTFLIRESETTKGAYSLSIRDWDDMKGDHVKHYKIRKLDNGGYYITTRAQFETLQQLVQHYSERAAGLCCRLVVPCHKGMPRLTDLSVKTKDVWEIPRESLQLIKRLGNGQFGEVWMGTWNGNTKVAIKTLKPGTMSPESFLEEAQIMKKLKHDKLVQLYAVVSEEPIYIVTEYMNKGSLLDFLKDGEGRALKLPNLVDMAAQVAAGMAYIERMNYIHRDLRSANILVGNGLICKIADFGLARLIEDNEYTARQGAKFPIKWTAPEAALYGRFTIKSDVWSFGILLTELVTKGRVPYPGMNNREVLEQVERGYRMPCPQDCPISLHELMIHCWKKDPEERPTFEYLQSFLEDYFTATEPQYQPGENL

By % inhibition is commonly meant the change of the read-out against control, counted positive when it falls. Higher therefore signals a response far below the control. `N.N.[Cl][Pt][Cl]` [Cisplatin, reference compound]: the “% inhibition at top conc.” value in data set [1] (HeLa, 72 h, top working concentration 100 μM) came out at 99.18%; in data set [2] (K-562, 72 h, top working concentration 100 μM), 98.74%; in data set [3] (DU 145, 72 h, top working concentration 100 μM) it was 95.44%; in data set [4] (GRANTA-519, 72 h, top working concentration 100 μM), 77.25%. Besides, the IC50 is 3760 nM in data set [2] (K-562, 72 h); 960 nM in [3] (DU 145, 72 h); 1680 nM in [4] (GRANTA-519, 72 h, CellTiter-Glo).

The inhibition is the share of the control response that was lost under treatment. In the case of `N#Cc1cc2cnc(Nc3ccc(N4CCNCC4)cc3)nc2n(C2CCCC2)c1=O` [ON 1232580, 8-Cyclopentyl-7-oxo-2-(4-piperazin-1-yl-phenylamino)-7,8-dihydro-pyrido[2,3-d]pyrimidine-6-carbonitrile], the “Cytotoxicity, result in words” value is “potent inhibitor” in [1] (HeLa cells), “potent inhibitor” in data set [2] (K-562 cells), “potent inhibitor” in data set [3] (DU 145 cells) and “potent killer” in [19]. The IC50 in data set [1] (Homo sapiens, HeLa, 72 h, CellTiter-Glo, read-out: Absolute IC50) was determined as 1500 nM; in data set [5] it was 8.13e-09 M; in data set [6], 2.97e-09 M; in data set [2] (Homo sapiens, K562, K-562, 72 h) it was 1190 nM; in data set [7], 8.06e-09 M; in data set [8], 2.01e-08 M. Besides, the IC50 is 2.28e-09 M in data set [9]; below 1e-09 M in [10]; 3.09e-08 M in data set [11]; 6.97e-09 M in [12]; 2.77e-09 M in [13]; below 1e-09 M in data set [14]. Moreover, the IC50 in [15] was 3.29e-08 M; in [3] (Homo sapiens, DU 145, 72 h) it was 930 nM; in data set [16], 6.12e-09 M; in [17] it was 4.25e-09 M; in data set [18] it was above 0.0001 M; in data set [4] (Homo sapiens, Granta-519, 72 h) it was 400 nM. In addition, the inhibition at 100 µM in [1] (Homo sapiens, HeLa, 72 h, top working concentration 100 μM, read-out: % inhibition at top conc.) stood at 100%; in data set [2] (Homo sapiens, K562, K-562, 72 h, top working concentration 100 μM, read-out: % inhibition at top conc.), 100%; in data set [3] (Homo sapiens, DU 145, 72 h, top working concentration 100 μM, read-out: % inhibition at top conc.), 99.9%; in [4] (Homo sapiens, Granta-519, 72 h, read-out: % inhibition at top conc.), 100%.

Take `CC(=O)c1c(C)c2cnc(Nc3ccc(N4CCNCC4)cn3)nc2n(C2CCCC2)c1=O` [Palbociclib, palbociclib, reference compound]: the IC50 in data set [9] is 1.91e-06 M; in [12], 1.72e-05 M.
